{
  "source": "patent US9598459B2",
  "about": "“Pharmaceutical compositions and methods” (priority 2015, dated 2017)",
  "key": {"[1]": {"test_system": "Hepatitis C virus (replicon) clone B (genotype 1a)", "assay": "HCV genotype 1a HuH-7 clone B subgenomic replicon RNA replication", "format": "cell-based, human hepatitis C virus", "conditions": "10 μM"}, "[2]": {"test_system": "Norwalk virus (replicon) GT1", "assay": "Norwalk virus replicon (GT1) in HG23, RNA hybridization", "format": "cell-based, Norwalk virus (human norovirus)", "conditions": "Norwalk virus"}, "[3]": {"test_system": "MNV MNV-1", "assay": "Murine norovirus (MNV-1) antiviral screen in RAW267.4", "format": "cell-based", "conditions": "RAW267.4, Neutral Red (Cytopathology), MNV-1, RAW267.4, Example 11"}, "[4]": {"test_system": "cellular ribosomal RNA (rRNA) synthesis", "assay": "Cellular ribosomal RNA synthesis in HCV replicon cells (TaqMan RT-qPCR)", "format": "cell-based", "conditions": "10 μM"}, "[5]": {"assay": "in vitro", "conditions": "human"}, "[6]": {"assay": "Toxicity in RAW267.4 cells (neutral red)", "conditions": "mouse, RAW267.4 cells, CC50, Neutral Red (Toxicity), Example 11"}, "[7]": {"assay": "in vitro", "conditions": "human", "remark": "listed apart in the source"}, "[8]": {"assay": "in vitro", "conditions": "African green monkey, CC50"}, "[9]": {"assay": "Cytotoxicity on CCRF-CEM", "conditions": "human, CCRF-CEM cells, CC50, Cytotoxicity control, CCRF-CEM, CellTiter MTS"}, "[10]": {"assay": "Cytotoxicity control on HepG2 (CellTiter MTS)", "conditions": "human, HepG2 cells"}, "[11]": {"test_system": "HIV-1 LAV", "assay": "Inhibition of inducible HIV-1 LAV replication in OM-10.1 (RT values)", "format": "cell-based, human immunodeficiency virus type 1", "conditions": "for RT Values: SAMPLE 1-3, MEAN"}, "[12]": {"assay": "Toxicity in OM-10.1 (Cell Titer 96)", "conditions": "human, OM-10.1 cells"}, "[13]": {"test_system": "OM-10.1 cells", "assay": "Toxicity in OM-10.1 (Cell Titer 96)", "conditions": "for TOXICITY VALUES (Cell Titer 96): SAMPLE 1-3, MEAN"}, "[14]": {"conditions": "GT1, HG23, Norwalk virus (replicon) GT1, HG23, Table 10"}, "[15]": {"conditions": "Human immunodeficiency virus 1, OM-10.1"}},
  "note": "Where “and” joins values, the source holds several entries; their conditions need not be identical. Equal values may be shown once.",
  "data": [
    {"smiles": "C[C@@]1(O)[C@H](O)[C@@H](CO)O[C@H]1n1ccc(N)nc1=O", "note": "[2′-C-methylcytidine (RS-446), 2′-C-methylcytidine, reference compound]", "values": [
      {"measurement": "TaqMan RT-qPCR threshold cycle value difference (ΔCT) of HCV replicon RNA synthesis", "setting": "[1]", "result": 5.72},
      {"measurement": "Inhibition of HCV replicon RNA syntheses at the fixed concentration of 10 μM of the test compound", "setting": "[1]; HuH-7 clone B", "result": 98.08, "unit": "%"},
      {"measurement": "EC50", "setting": "[2]; [14]", "result": 6.9, "unit": "µM"},
      {"measurement": "EC90", "setting": "[2]; [14]", "result": 18, "unit": "µM"},
      {"measurement": "EC90", "setting": "[2]; GT1, HG23, RNA Hybridization (Replicon), NV GT1, HG23, Example 10", "result": 19, "unit": "µM"},
      {"measurement": "EC50", "setting": "[2]; GT1, HG23, RNA Hybridization (Replicon), NV GT1, HG23, Example 10, unit from Conc. Range", "result": 6.4, "unit": "µM"},
      {"measurement": "EC90", "setting": "[3]", "result": 3.1, "unit": "µM"},
      {"measurement": "EC50", "setting": "[3]; unit from Conc. Range", "result": 1000, "unit": "nM"},
      {"measurement": "Inhibition of cellular ribosomal RNA (rRNA) synthesis at the fixed concentration of 10 μM of the test compound", "setting": "[4]", "result": 31.09, "unit": "%"},
      {"measurement": "CC50", "setting": "[5]", "result": "> 300", "unit": "µM"},
      {"measurement": "CC50", "setting": "[6]", "result": "> 30", "unit": "µM"}
    ]},
    {"smiles": "C[C@@H]1C[C@@H]([C@H](O)CC2CC(=O)NC(=O)C2)C(=O)[C@@H](C)C1", "note": "[Cycloheximide]", "values": [
      {"measurement": "CC50", "setting": "[7]", "result": 500, "unit": "nM"},
      {"measurement": "CC50", "setting": "[8]", "result": 200, "unit": "nM"},
      {"measurement": "CC50", "setting": "[9]", "result": 100, "unit": "nM"},
      {"measurement": "CC50", "setting": "[10]", "result": 600, "unit": "nM"}
    ]},
    {"smiles": "O=c1c2ccccc2n2nnc3ccc(NCCCN4CCN(CCCNc5ccc6nnn7c8ccccc8c(=O)c5c67)CC4)c1c32", "note": "[Temacrazine (TMZ)]", "values": [
      {"measurement": "% VC", "setting": "[11]; 0.10 nM", "result": 96.8, "unit": "%"},
      {"measurement": "RT Values", "setting": "[11]; 0.10 nM", "result": "30380 cpm and 31745 cpm and 26409 cpm"},
      {"measurement": "% VC", "setting": "[11]; 1.00 nM", "result": 87.9, "unit": "%"},
      {"measurement": "RT Values", "setting": "[11]; 1.00 nM", "result": "32770 cpm and 23041 cpm and 24504 cpm"},
      {"measurement": "% VC", "setting": "[11]; 3.16 nM", "result": 92.4, "unit": "%"},
      {"measurement": "RT Values", "setting": "[11]; 3.16 nM", "result": "30588 cpm and 25259 cpm and 28648 cpm"},
      {"measurement": "% VC", "setting": "[11]; 10.0 nM", "result": 99.6, "unit": "%"},
      {"measurement": "RT Values", "setting": "[11]; 10.0 nM", "result": "27453 cpm and 31623 cpm and 31990 cpm"},
      {"measurement": "% VC", "setting": "[11]; 31.6 nM", "result": 87.0, "unit": "%"},
      {"measurement": "RT Values", "setting": "[11]; 31.6 nM", "result": "25515 cpm and 24677 cpm and 29321 cpm"},
      {"measurement": "% VC", "setting": "[11]; 100 nM", "result": 37.5, "unit": "%"},
      {"measurement": "% VC", "setting": "[11]; 316 nM", "result": 22.7, "unit": "%"},
      {"measurement": "RT Values", "setting": "[11]; 316 nM", "result": "6512 cpm and 5272 cpm and 8986 cpm"},
      {"measurement": "% VC", "setting": "[11]; 1000 nM", "result": 2.0, "unit": "%"},
      {"measurement": "EC50", "setting": "[11]; Human immunodeficiency virus 1", "result": 70, "unit": "nM"},
      {"measurement": "EC90", "setting": "[11]; Human immunodeficiency virus 1", "result": 640, "unit": "nM"},
      {"measurement": "IC50", "setting": "[11]; [15]", "result": 74.8, "unit": "nM"},
      {"measurement": "IC90", "setting": "[11]; [15]", "result": 641, "unit": "nM"},
      {"measurement": "IC 95%", "setting": "[11]; OM-10.1", "result": 847, "unit": "nM"},
      {"measurement": "Selectivity Index (CC50/EC50)", "setting": "[11]; OM-10.1, Table 7", "result": ">0.13"},
      {"measurement": "CC50", "setting": "[12]", "result": "> 1000", "unit": "nM"},
      {"measurement": "% CC", "setting": "[13]; 0.10 nM", "result": 108.4, "unit": "%"},
      {"measurement": "TOXICITY VALUES (Cell Titer 96)", "setting": "[13]; 0.10 nM", "result": "0.727 O.D. @ 490/650 nm and 0.895 O.D. @ 490/650 nm and 0.621 O.D. @ 490/650 nm"},
      {"measurement": "% CC", "setting": "[13]; 1.00 nM", "result": 109.3, "unit": "%"},
      {"measurement": "TOXICITY VALUES (Cell Titer 96)", "setting": "[13]; 1.00 nM", "result": "0.781 O.D. @ 490/650 nm and 0.744 O.D. @ 490/650 nm and 0.736 O.D. @ 490/650 nm"},
      {"measurement": "% CC", "setting": "[13]; 3.16 nM", "result": 126.3, "unit": "%"},
      {"measurement": "TOXICITY VALUES (Cell Titer 96)", "setting": "[13]; 3.16 nM", "result": "0.830 O.D. @ 490/650 nm and 0.933 O.D. @ 490/650 nm and 0.849 O.D. @ 490/650 nm"},
      {"measurement": "% CC", "setting": "[13]; 10.0 nM", "result": 137.0, "unit": "%"},
      {"measurement": "TOXICITY VALUES (Cell Titer 96)", "setting": "[13]; 10.0 nM", "result": "0.882 O.D. @ 490/650 nm and 0.999 O.D. @ 490/650 nm and 0.954 O.D. @ 490/650 nm"},
      {"measurement": "% CC", "setting": "[13]; 31.6 nM", "result": 138.1, "unit": "%"},
      {"measurement": "TOXICITY VALUES (Cell Titer 96)", "setting": "[13]; 31.6 nM", "result": "0.967 O.D. @ 490/650 nm and 0.902 O.D. @ 490/650 nm and 0.988 O.D. @ 490/650 nm"},
      {"measurement": "% CC", "setting": "[13]; 100 nM", "result": 138.2, "unit": "%"},
      {"measurement": "TOXICITY VALUES (Cell Titer 96)", "setting": "[13]; 100 nM", "result": "0.917 O.D. @ 490/650 nm and 0.990 O.D. @ 490/650 nm and 0.952 O.D. @ 490/650 nm"},
      {"measurement": "% CC", "setting": "[13]; 316 nM", "result": 136.7, "unit": "%"},
      {"measurement": "TOXICITY VALUES (Cell Titer 96)", "setting": "[13]; 316 nM", "result": "0.977 O.D. @ 490/650 nm and 1.037 O.D. @ 490/650 nm and 0.813 O.D. @ 490/650 nm"},
      {"measurement": "% CC", "setting": "[13]; 1000 nM", "result": 129.9, "unit": "%"},
      {"measurement": "TOXICITY VALUES (Cell Titer 96)", "setting": "[13]; 1000 nM", "result": "0.897 O.D. @ 490/650 nm and 0.910 O.D. @ 490/650 nm and 0.879 O.D. @ 490/650 nm"},
      {"measurement": "TC 90%", "setting": "[13]; OM-10.1", "result": ">1000", "unit": "nM"},
      {"measurement": "TC 95%", "setting": "[13]; OM-10.1", "result": ">1000", "unit": "nM"},
      {"measurement": "CC50", "setting": "[13]; read-out: TC 50%, OM-10.1", "result": "> 1000", "unit": "nM"}
    ]}
  ]
}
